≈ marks a conversion by molar mass, not a printed value. Where “and” joins values, the source holds several entries; their conditions need not be identical. Equal entries are not always repeated. Where two headings read alike, the source gives them in different places.
Key:
DSY-565 C. glabrata CI = assay: MIC determination in Candida strain DSY-565; format: cell-based; conditions: Nakaseomyces glabratus
Description: (§1) In Vitro Antifungal Activity. MIC values for various strains were determined in accordance with the standard protocol from the National Committee of Clinical Laboratory Standards but using YEPD liquid medium instead of RPMI-1640 medium (National Committee of Clinical Laboratory Standards (Reference Method for Broth Dilution Antifungal Susceptibility Testing of Yeast, M27-A2, Approved Standard-Second Edition, Volume 22, Number 15, 1995). AmB was used as a reference. The strains were cultivated overnight in 5 mL YEPD liquid medium at 30 to 37° C. (30° C. for the strain BY4741; 37° C. for the strain DSY1764) with constant shaking. The saturated cultures were diluted to an ODB600 of 0.1 (3×10P^7 cells/mL). Using 24 wells plate, each well was prepared by adding 1% (12 μL) of DMSO solution of the tested polyene macrolide with 1% (12 μL) yeast cells solution and completed with YEPD (1.176 mL). The plates were sealed with Parafilm and then incubated for 18 to 36 hours at 30 to 37° C. (18 hours at 30° C. for the strain BY4741; 36 hours at 37° C. for the strain DSY1764). The optical density was read at 600 nm using 1.5 mL cuvettes. The MIC value was defined as the drug concentration needed to inhibit growth, less than 5% compared to a drug-free culture.
(§2) MIC values of the polyene macrolides 3, 9 and 10 (Diamine-AmB and its ester and diamide derivative, respectively) in various Candida strains including an AmB-resistant strain C. albicans (DSY1764, with the genotype erg3AΔ::hisG/erg3BΔ::hisG erg11Δ::hisG/erg11Δ::hisG-URA3-hisG) were determined.

CAF2-1 C. albican wt = assay: MIC determination in Candida strain CAF2-1; format: cell-based, Candida albicans; conditions: Candida albicans
Description: as §1, §2

human erythrocytes = assay: Hemolytic assay (EH50); format: cell-based
Description: Hemolytic Assay. The hemotoxicity of the polyene macrolide derivatives of the invention was determined by measuring the toxicity towards human erythrocytes (EH50 value) using an established assay (Kinsky, S. C. et al., Biochem. Biophys. Res. Comm. 1962, 9, 503). Human blood, anticoagulated with citrate or EDTA, was centrifuged (2000×g) at 4° C. for 10 minutes. The pellets were washed three times with PBS buffer (pH 7.2 with 2 g/L glucose) and then diluted to a concentration of 4% (4×10^8 cells/mL). All experiments were done in triplo and the total volume for the hemolysis tubes was 1.4 ml. The solutions were prepared by adding 1% (14 μL) of DMSO solution of the tested compound with […] of PBS buffer and completed with 750 μL of 4% erythrocytes. After one hour incubation at 37° C., the samples were centrifuged (1500×g) at 4° C. for 5 min and the absorbance of the supernatant was measured at 560 nm. The concentration that led to 50% hemolysis (EH50) was intrapolated graphically. The value for the 100% hemolysis was obtained by the treatment with 100 μM of AmB.
The toxicity of AmB (1a) and the polyene macrolides 3, 9 and 10 towards human erythrocytes was examined using the above described hemolysis assay (Table 3).

Solubility assay = format: physicochemical; conditions: PBS buffer, pH 7.2, aqueous buffer, kinetic from dmso stock, DMSO stock added to PBS buffer solution pH 7.2; precipitation point by light scattering at 600 nm; read-out: Solubility in water
Description: Solubility assay. The solubility assay was performed according to Lipinski, C. A. et al Advances Drug Delivery Reviews 2001, 46, 3-26. Typically, a compound of the invention was dissolved in DMSO at a concentration of 10 μg/μl. The so obtained solution was added in […] at 1 min intervals to 2.5 ml PBS buffer solution pH 7.2. These additions correspond to solubility increments of 5 μg/ml to a top value of 65 μg/ml. A total of 14 additions were made and each time increased UV absorbance from light scattering was measured at 600 nm. The precipitation point was calculated from a bilinear curve fit to the Absorbance (y axis) versus μl of DMSO (x axis) plot.
The solubility of the polyene macrolides of the invention in water was tested following the above described protocol. Clearly, all conjugates were more soluble in water then AmB.

[1] = K+ efflux assay, cholesterol containing vesicles; conditions: lower concentration, 0.1 μM (FIG. 3a,c,e,g)
Description: (§3) FIG. 3. K^+ efflux from vesicles (LUVET100) prepared from […] (POPC) (solid line) or POPC with sterols (dotted line) for ergosterol and (broken line) for cholesterol caused by AmB (1a) (FIGS. 3a,b) and AmB diamine 3 (FIG. 3c,d), AmB diamine ester 9 (FIG. 3e,f) and AmB diamine amide 10 (FIG. 3g,h), added in DMSO to a suspension of vesicles to give final concentrations of 0.1 μM (FIG. 3a,c,e,g) and 1.0 μM (FIG. 3b,d,f,h).
K+ efflux assay. The K^+ efflux measurements were made following a previously described procedure (Zumbuehl, A. et al., Angew. Chem. Int. Ed. 2004, 43, 5181-5185; Zumbuehl, A. et al., Org. Lett. 2004, 6, 3683-3686). The appropriate liposome suspensions were prepared using POPC, cholesterol and ergosterol. Then the liposomes were sized by extrusion through two 400 nm, 200 nm, and finally 100 nm pore size membrane. The resultant “100 nm” unilamellar liposomes were dialyzed against 600 mL of 150 mM NaCl, 5 mM HEPES (pH 7.4) buffer. After, the suspension was diluted with 150 mM NaCl, 5 mM HEPES (pH 7.4) buffer to 1 mM overall lipid concentration (phospholipids+sterols). For each efflux measurement 10 mL of this liposome suspension was placed in a small beaker. Potentiometric measurements were performed with a 16-channel electrode monitor in magnetically stirred solutions at ambient temperature. The reference electrode was a Metrohm double junction Ag/AgCl reference electrode with 3 M KCl as reference electrolyte and 1 M LiOAc as bridge electrolyte. After recording the amphotericin-induced potassium efflux, liposomes were lysed by adding sodium cholate (172 mg). The resulting reading (taken after 0.5 h) was used to quantify the 100% K+-release.
As described hereinbefore differential interaction between ergosterol found in fungal membranes and cholesterol in mammalian cells is considered the basis for the selectivity of AmB (1a) as an antifungal agent. The preferential stabilization of ion channel formation in the membrane by ergosterol ultimately results in electrolyte leakage which can be conveniently measured by K^+ efflux from sterol containing vesicles. To assess the interaction of the polyene macrolide derivatives of the invention with sterols, derivatives 3, 9 and 10 were examined in their ability to lead to K^+ efflux from large unilamellar vesicles (LUV) prepared from POPC (1-palmitoyl-2-oleoyl-sn-glycero-3-phosphocholine) admixed with sterols, mimicking conditions in natural biomembranes (FIG. 3). At high concentration (FIG. 3b,d,f,h), all compounds rapidly induce complete K^+ efflux from vesicles containing ergosterol (dotted line). […] This differentiation between ergosterol and cholesterol is consistent with the observation of reduced hemotoxicity of 3, 9 and 10.

DSY-562 C. glabrata CI = assay: MIC determination in Candida strain DSY-562; format: cell-based; conditions: Nakaseomyces glabratus
Description: as §1, §2

[2] = system: DSY-1764 C. albican mutant erg3/11 (AmB-resistant strain); assay: MIC determination in AmB-resistant Candida strain DSY-1764; format: cell-based, Candida albicans; conditions: Candida albicans, 36 h
Description: as §1, §2

[3] = K+ efflux assay, ergosterol containing vesicles; conditions: lower concentration, 0.1 μM (FIG. 3a,c,e,g)
Description: as §3
K+ efflux assay. The K^+ efflux measurements were made following a previously described procedure (Zumbuehl, A. et al., Angew. Chem. Int. Ed. 2004, 43, 5181-5185; Zumbuehl, A. et al., Org. Lett. 2004, 6, 3683-3686). The appropriate liposome suspensions were prepared using POPC, cholesterol and ergosterol. Then the liposomes were sized by extrusion through two 400 nm, 200 nm, and finally 100 nm pore size membrane. The resultant “100 nm” unilamellar liposomes were dialyzed against 600 mL of 150 mM NaCl, 5 mM HEPES (pH 7.4) buffer. After, the suspension was diluted with 150 mM NaCl, 5 mM HEPES (pH 7.4) buffer to 1 mM overall lipid concentration (phospholipids+sterols). For each efflux measurement 10 mL of this liposome suspension was placed in a small beaker. Potentiometric measurements were performed with a 16-channel electrode monitor in magnetically stirred solutions at ambient temperature. The reference electrode was a Metrohm double junction Ag/AgCl reference electrode with 3 M KCl as reference electrolyte and 1 M LiOAc as bridge electrolyte. […] The resulting reading (taken after 0.5 h) was used to quantify the 100% K+-release.
As described hereinbefore differential interaction between ergosterol found in fungal membranes and cholesterol in mammalian cells is considered the basis for the selectivity of AmB (1a) as an antifungal agent. The preferential stabilization of ion channel formation in the membrane by ergosterol ultimately results in electrolyte leakage which can be conveniently measured by K^+ efflux from sterol containing vesicles. […]

[4] = system: Saccharomyces cerevisiae wild type BY4741; assay: MIC determination in Saccharomyces cerevisiae wild type BY4741; format: cell-based; conditions: for MIC: read-out: MIC
Description: as §1
MIC values of various polyene macrolides of the invention in Saccharomyces cerevisiae wild type BY4741, a derivative of S288C, (with AmB as a reference) were determined as described hereinabove.
Based on the remarkable performance observed with the Diamine-AmB conjugate similar modifications of the aminosugar moiety were made on other polyene macrolides, such as for example Nystatin (1b) and Pimaricin (1c). The antifungal activity of these nystatin and pimaricin conjugates bearing two aminopropyl side chains was measured using Saccharomyces cerevisiae wild type BY4741.

DSY-294 C. albican CI = assay: MIC determination in Candida strain DSY-294; format: cell-based, Candida albicans; conditions: Candida albicans
Description: as §1, §2

DSY-296 C. albican CI = assay: MIC determination in Candida strain DSY-296; format: cell-based, Candida albicans; conditions: Candida albicans
Description: as §1, §2

[5] = system: DSY-1751 C. albican mutant erg3; assay: MIC determination in Candida strain DSY-1751; format: cell-based, Candida albicans; conditions: Candida albicans
Description: as §1, §2

[6] = Saccharomyces cerevisiae wild type BY4741, YEPD liquid medium, 18 hours at 30° C.

Structure (SMILES)	MIC (DSY-565 C. glabrata CI) [µM]	MIC (CAF2-1 C. albican wt) [µM]	EH50 (human erythrocytes; concentration that led to 50% hemolysis of human erythrocytes, one hour at 37° C.) [µM]	times less toxic than AmB (EH50) (human erythrocytes; human erythrocytes, relative to AmB (1a)) [times]	solubility (Solubility assay) [µg/mL]	K+ efflux with cholesterol containing vesicles [1]	MIC (DSY-562 C. glabrata CI) [µM]	MIC [2] [µM]	K+ efflux with ergosterol containing vesicles [3]	MIC [4, 6]	times more active than AmB (MIC) ([4]; Saccharomyces cerevisiae wild type BY4741, relative to AmB) [times]	MIC ([4]; Saccharomyces cerevisiae, Table 3, strain not given, values as in Table 1 (S. cerevisiae BY4741)) [µM]	MIC (DSY-294 C. albican CI) [µM]	MIC (DSY-296 C. albican CI) [µM]	MIC [5] [µM]
C[C@@H]1[C@H](O)[C@@H](C)/C=C/C=C/C=C/C=C/C=C/C=C/C=C/[C@H](O[C@@H]2O[C@H](C)[C@@H](O)[C@H](N(CCCN)CCCN)[C@@H]2O)C[C@@H]2O[C@](O)(C[C@@H](O)C[C@@H](O)[C@H](O)CC[C@@H](O)C[C@@H](O)CC(=O)O[C@H]1C)C[C@H](O)[C@H]2C(=O)O [compound 3, N,N-Di-(3-aminopropyl)-AmB]	0.2 (≈ 0.208 µg/mL)	0.1 (≈ 0.104 µg/mL)	10	2.5	12 (≈ 11.6 µM)	indistinguishable from background	0.2 (≈ 0.208 µg/mL)	1 (≈ 1.04 µg/mL)	observed exclusively with the ergosterol containing vesicles	0.02 µM and 0.020 µM	15	0.02 (≈ 0.0208 µg/mL)	0.2 (≈ 0.208 µg/mL)		
C[C@@H]1[C@H](O)[C@@H](C)/C=C/C=C/C=C/C=C/C=C/C=C/C=C/[C@H](O[C@@H]2O[C@H](C)[C@@H](O)[C@H](N(CCCN)CCCN)[C@@H]2O)CC2O[C@](O)(C[C@@H](O)C[C@@H](O)[C@H](O)CC[C@@H](O)C[C@@H](O)CC(=O)O[C@H]1C)C[C@H](O)[C@H]2C(=O)NCCCN(C)C [compound 11, 16-(N′-(3-Dimethylaminopropyl)carboxamide)-N,N-di-(3-aminopropyl)-AmB]	0.3 (≈ 0.337 µg/mL)	0.5 (≈ 0.561 µg/mL)					0.3 (≈ 0.337 µg/mL)	1 (≈ 1.12 µg/mL)		0.4 µM (≈ 0.449 µg/mL)				0.3 (≈ 0.337 µg/mL)	1 (≈ 1.12 µg/mL)
